Five compounds from patent US10450335B2, “Antiviral oxime phosphoramide compounds” (Merck Sharp & Dohme Corp., priority 2015, dated 2019) can be followed below.

As usually defined, the IC50 is the concentration that gives 50% inhibition.

The nature of series [1]: Prodrug stability assay in bio-relevant media (FaSSIF with Pancreatin, GI tract stability). It counts as in vitro ADME. Particulars: HPLC peak area of prodrug at 5 h / 0 h, 0.5 mg/mL Pancreatin in FaSSIF, 37° C. Here is the method:
Prodrug Stability Assay in Bio-Relevant Media
The following assay was employed to evaluate the stability of the prodrugs in simulated gastrointestinal tract conditions. Preparation of fasted state simulated intestinal fluid (FaSSIF) using Phares SIF Powder was carried out according to protocols from Phare Drug Delivery AG (Baselland, Switzerland). For sample preparation, 10 μL stock solutions (10 mM) of prodrug substance in DMSO was added to 990 μL of 0.5 mg/mL Pancreatin solution (Fisher CAS#8049-47-6) in FaSSIF. Two samples were prepared for each compound. If the sample was a clear solution, it was directly analyzed by HPLC. If the sample was not clear, the sample was […] at 37° C. and observed 5 h later. If the sample was clear, HPLC analysis was directly performed. If the sample was still not clear, the sample was diluted with 100% ACN and assayed by HPLC. All the samples were vortexed for 3 min and observed before injection. For the diluted samples, the area is multiplied by a dilution factor when the data is analyzed. The analysis was carried out with an Agilent 1100 series HPLC with autosampler. The column was a Poroshell 120 EC-C18, 4.6×50 mm, […]. The flow rate was 1.8 mL/min, and the injection volume was 5 or 10 μL. UV detection was in the range 210-400 nm. The mobile phase consisted of solvent A (water plus 10 mM tetrabutylammonium bromide) and solvent B (acetonitrile) with a gradient of: 90% solvent A at 0 min, changing to 95% solvent B over 6 min, maintaining for 1.5 min, then reverting to 90% solvent A over 1.6 min. The HPLC peak area of the prodrug at 5 h was divided by the HPLC peak area of the prodrug at 0 h, to generate the % claimed parent ratio, which is summarized in Table 2 for gastrointestinal (GI) Tract stability.

For another series, the system named is HIV-1 (H9/IIIB strain). Kind of series: Viking assay: antiviral potency in a multiple round HIV-1 infection assay in MT4-GFP cells. It counts as cell-based. Particulars: Human immunodeficiency virus 1, IIIB, MT4-GFP cells infected with HIV-1 H9/IIIB, inhibition of reproductive ratio R0. Here is the method: Assessing Antiviral Potency in a Multiple Round HIV-1 Infection Assay (Viking Assay)
The antiviral activity of the tenofovir prodrugs of the Examples herein was assessed in an assay that measures the rate of replication of HIV in cell culture, termed the Viking assay (VIral KINetics in Green cells) and performed as follows. HIV-1 replication was monitored using MT4-gag-GFP clone D3 (hereafter designated MT4-GFP), which are MT-4 cells modified to harbor a GFP reporter gene, the expression of which is dependent on the HIV-1 expressed proteins tat and rev. Productive infection of an MT4-GFP cell with HIV-1 results in GFP expression approximately 24 h post-infection. MT4-GFP cells were maintained at 37° C./5% CO2/90% relative humidity in RPMI 1640 supplemented with 10% fetal bovine serum, 100 U/ml penicillin/streptomycin, and 400 μg/ml G418 to maintain the reporter gene. For infections, MT4-GFP cells were placed in the same medium lacking G418 and infected overnight with HIV-1 (H9/IIIB strain) virus at an approximate multiplicity of infection of 0.01 in the same incubation conditions. Cells were then washed and re-suspended in either RPMI 1640 supplemented with 10% or 50% normal human serum (NHS) at 1.6×10^5 cells/mL (10% NHS or 50% NHS, respectively). Compound plates were prepared by dispensing compounds dissolved in DMSO into wells of 384 well poly-D-lysine-coated plates (0.2 μl/well) using an ECHO acoustic dispenser. Each compound was tested in a 10-point serial 3-fold dilution (typical final concentrations: 8.4 μM-0.42 nM). Controls included no inhibitor (DMSO only) and a combination of three antiviral agents (efavirenz, indinavir, an in-house integrase strand transfer inhibitor at final concentrations of 4 μM each). Cells were added (50 μL/well) to compound plates and the infected cells were maintained at 37° C./5% CO2/90% relative humidity.
Infected cells were quantified at two time points, ˜48 h and ˜72 h post-infection, by counting the number of green cells in each well using an Acumen eX3 scanner. The increase in the number of green cells over ˜24 h period gives the reproductive ratio, R0, which is typically 5-15 and has been shown experimentally to be in logarithmic phase (data not shown). Inhibition of R0 is calculated for each well, and IC50s determined by non-linear 4-parameter curve fitting.

[2] abbreviates: 10% normal human serum, read-out: Viking, IC50 (10% NHS).
[3] abbreviates: 50% normal human serum, read-out: Viking, IC50 (50% NHS).

Read-outs that look alike come from different tables or passages of the source.

Consider `CC(C)CC(CC(C)C)=NOP(=O)(CO[C@H](C)Cn1cnc2c(N)ncnc21)NC(C)(C)C(=O)OC(C)C` (single isomer, unassigned) [Example 28], for which the “GI Tract stability” value in series [1] is on record as 93.1%. The IC50 was found to be 0.0007 µM in the series on HIV-1 (H9/IIIB strain) (setting [2]) and 0.0038 µM with HIV-1 (H9/IIIB strain) (setting [3]). The matching figures for `CC(C)OC(=O)[C@H](C)NP(=O)(CO[C@H](C)Cn1cnc2c(N)ncnc21)ON=C(C1CC1)C1CC1` (stereo partly drawn) [Example 10, isopropyl (((((R)-1-(6-amino-9H-purin-9-yl)propan-2-yl)oxy)methyl)(((dicyclopropylmethyl-ene)amino)oxy)phosphoryl)-L-alaninate]: 95.0%, 0.0468 µM and 0.228 µM. For `C/C(=N\OP(=O)(CO[C@H](C)Cn1cnc2c(N)ncnc21)N[C@@H](C)C(=O)OC(C)C)C1CCCC1` (stereo partly drawn) [Example 21, isopropyl (((R)-(((R)-1-(6-amino-9H-purin-9-yl)propan-2-yl)oxy)methyl)((((E)-1-cyclopentylethylidene)amino)oxy)phosphoryl)-L-alaninate; and isopropyl (((S)-(((R)-1-(6-amino-9H-purin-9-yl)propan-2-yl)oxy)methyl)((((E)-1-cyclopentylethylidene)amino)oxy)phosphonyl)-L-alaninate], in series [1], the “GI Tract stability” value worked out at 79.5%.

Regarding `CC(C)=NOP(=O)(CO[C@H](C)Cn1cnc2c(N)ncnc21)NC(C)(C)C(=O)OC(C)C` (stereo partly drawn) [Example 22, isopropyl 2-(((R)-((((R)-1-(6-amino-9H-purin-9-yl)propan-2-yl)oxy)methyl)((propan-2-ylideneamino)oxy)phosphoryl)amino)-2-methylpropanoate; and isopropyl 2-(((S)-((((R)-1-(6-amino-9H-purin-9-yl)propan-2-yl)oxy)methyl)((propan-2-ylideneamino)oxy)phosphonyl)amino)-2-methylpropanoate], in series [1], the “GI Tract stability” value worked out at 98.1%. As for “butyl 2-(((R)-((((R)-1-(6-amino-9H- purin-9-yl)propan-2- yl)oxy)methyl)((propan-2- ylideneamino)oxy)phosphoryl)amino)- 2-methylpropanoate; and butyl 2-(((S)-((((R)-1-(6-amino-9H- purin-9-yl)propan-2- yl)oxy)methyl)((propan-2- ylideneamino)oxy)phosphoryl)amino)- 2-methylpropanoate [Example 23]”, in series [1], the “GI Tract stability” value came to 99.0%.
